We go through 13 compounds from ChEMBL document CHEMBL1201862, “PubChem BioAssay data set” (2004).

Structures are written as SMILES.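 All cell lines were grown in 96-well plates and treated with compound for 48 hours. Here, GI50 denotes the concentration required for 50% inhibition of growth.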 Activity calls are given as the source filed them. Rule as the data show it: active = GI50 up to about 1.1 µM and inactive = higher. Some results are limits rather than exact numbers.

Holding throughout (assay): growth of human tumour cells (NCI), 48 h
Test [1] relates to HCT-15.
The subject of test [2] is SNB-75.
For test [3], the system named is NCI-H226.
Test [4] concerns SN12C.
Test [5] concerns SNB-19.
Test [6] deals with NCI-H460.
The test system of test [7] is EKVX.
Test [8] concerns UACC-62.
The subject of test [9] is SK-MEL-28.
Test [10] deals with NCI-H23.
For test [11], the system named is SF-539.
The subject of test [12] is MOLT-4.
In test [13] the test system is OVCAR-8.
Test [14] has as its system CAKI-1.
Test [15] deals with SR.
Test [16] relates to A549.
The test system of test [17] is SW-620.
Test [18] relates to MDA-MB-435.
In test [19] the test system is DU-145.

Regarding `CC(=O)OCC(OC(C)=O)C(OC(C)=O)C(OC(C)=O)C(=O)CNn1c(-c2ccccc2Cl)nc2ccccc2c1=O` (stereo not given), the GI50 in [1] was more than 100 µM; in [2] it was > 100 µM (inactive); in test [3], > 100 µM (inactive); in test [4] it was > 100 µM (inactive); in [5], > 100 µM (inactive); in [6], > 100 µM (inactive). Besides, the GI50 in [7], in test [8], in test [9], in test [10], in [11] and in test [12] was > 100 µM (inactive) each time. Further, the GI50 was > 100 µM (inactive) in [13]; > 100 µM (inactive) in test [14]; 61.9 µM (inactive) in test [15]; > 100 µM (inactive) in [16]; > 100 µM (inactive) in [17].

With `Cc1cc(OC2OC(CO)C(O)C(O)C2O)ccc1O` (stereo not given), the GI50 in [1] is more than 100 µM; in test [18] it was > 100 µM (inactive); in test [2] it was > 100 µM (inactive); in test [4] it was > 100 µM (inactive); in test [5], > 100 µM (inactive); in [6], > 100 µM (inactive). The GI50 in [7] was > 100 µM (inactive); in test [19] it was > 10 µM (inactive); in test [8], > 100 µM (inactive); in test [9], > 100 µM (inactive); in test [10], > 100 µM (inactive); in test [11], > 100 µM (inactive). Also, the GI50 in [12], in test [13], in test [14], in [16] and in test [17] was > 100 µM (inactive) each time.

Turning to `CC(=O)C1C(=O)C(=O)N(c2cccc(C)c2C)C1=O` (stereo not given), the GI50 in test [2], in [3], in [4], in [5], in test [7] and in test [19] was > 100 µM (inactive) throughout. Moreover, the GI50 in test [8] was > 100 µM (inactive); in [10], > 100 µM (inactive); in test [11], > 100 µM (inactive); in test [12] it was 22.8 µM (inactive); in test [13], > 100 µM (inactive); in test [14] it was > 100 µM (inactive). Besides, the GI50 in test [16] was > 100 µM (inactive).

For `CC(=O)O[C@H]1CCC2[C@@H]3CCC4Nc5[nH]ncc5C[C@]4(C)C3CC[C@@]21C` (stereo not given in full), the GI50 in test [1] is 44.6 µM; in [2] it was 54 µM (inactive); in [3], > 100 µM (inactive); in test [4], > 100 µM (inactive); in [5], 26.4 µM (inactive); in [6] it was > 100 µM (inactive). The GI50 is 35.1 µM (inactive) in test [7]; 18.9 µM (inactive) in test [8]; 61.2 µM (inactive) in [10]; > 100 µM (inactive) in test [11]; 22.9 µM (inactive) in [12]; 34.9 µM (inactive) in test [13]. Also, the figures for the GI50 in test [14], in [16] and in test [17] were 45.1 µM (inactive), > 100 µM (inactive) and 36.8 µM (inactive), respectively.

Consider `Cc1c(C(=O)O)c2cc3ccccc3cc2c(=O)n1C`, for which the GI50 in test [1] is more than 10 µM; in test [18], > 10 µM (inactive); in test [2], > 10 µM (inactive); in [3] it was > 10 µM (inactive); in test [4], > 10 µM (inactive); in test [5], > 10 µM (inactive). For the same compound, the GI50 in test [6], in test [7], in test [8], in test [10], in test [11] and in test [13] was > 10 µM (inactive) each time. Further, the GI50 in test [15], in test [16] and in test [17] was > 10 µM (inactive) each time.

In the case of `O=S(=O)(c1ccccc1)c1ccc(/N=N/O)nc1`, the GI50 in test [1] was more than 100 µM; in test [2], 62.2 µM (inactive); in test [3], > 100 µM (inactive); in [4], > 100 µM (inactive); in test [5], > 100 µM (inactive); in test [6], > 100 µM (inactive). Also, the GI50 in test [7], in test [19], in test [8], in test [9], in [10] and in test [11] was > 100 µM (inactive) in each case. In addition, the GI50 in test [12] is 22.4 µM (inactive); in test [13], > 100 µM (inactive); in test [14], > 100 µM (inactive); in test [15] it was > 100 µM (inactive); in test [16], > 100 µM (inactive); in test [17], > 100 µM (inactive).

Regarding `Cc1ccc(S(=O)(=O)Nn2c(-c3ccccc3)c(C#N)c(-c3ccc(Cl)cc3)c(C#N)c2=O)cc1`, the GI50 in test [1] was 26.9 µM; in test [18], 33.3 µM (inactive); in test [4], 35.7 µM (inactive); in test [5], 31.2 µM (inactive); in test [6] it was 27.9 µM (inactive); in test [8], 16.1 µM (inactive). The GI50 was 24.4 µM (inactive) in test [9]; 21.1 µM (inactive) in test [11]; 18.7 µM (inactive) in [12]; 55.7 µM (inactive) in test [14]; 26.9 µM (inactive) in test [16]; 30.4 µM (inactive) in test [17].

With `COc1cccc(/C=N/n2c(C)n[nH]c2=O)c1`, the GI50 in [1] was more than 100 µM; in [18], > 100 µM (inactive); in [2], 58.7 µM (inactive); in [3] it was 95.1 µM (inactive); in test [4], > 100 µM (inactive); in test [5], > 100 µM (inactive). Also, the GI50 in test [6] was > 100 µM (inactive); in [7], 32 µM (inactive); in test [8] it was 69.3 µM (inactive); in test [9], > 100 µM (inactive); in test [10], > 100 µM (inactive); in test [11] it was > 100 µM (inactive). For the same compound, the GI50 in test [12] was > 100 µM (inactive); in test [13] it was > 100 µM (inactive); in test [14], 60.5 µM (inactive); in [16] it was > 100 µM (inactive); in [17], > 100 µM (inactive).

With `Cc1ccc(-n2nncc2[Si](C)(C)C)s1`, the GI50 in test [1] is more than 100 µM; in [18] it was > 100 µM (inactive); in test [3], > 100 µM (inactive); in test [4], > 100 µM (inactive); in test [5], > 100 µM (inactive); in test [6], > 100 µM (inactive). In addition, the GI50 in test [19], in test [8], in [9], in [10], in test [11] and in test [13] was > 100 µM (inactive) throughout. Moreover, the GI50 in test [14], in [16] and in test [17] was > 100 µM (inactive) in each case.

In the case of `CCN(CC)CC1CCCCN1CC(=O)N1c2ccccc2NC(=O)CC1C` (stereo not given), the GI50 in test [1] is more than 100 µM; in test [18] it was > 100 µM (inactive); in test [3], > 100 µM (inactive); in test [4], > 100 µM (inactive); in test [5], > 100 µM (inactive); in test [6], > 100 µM (inactive). Besides, the GI50 in test [7], in test [19], in [9], in [10], in [11] and in [12] was > 100 µM (inactive) in each case. The GI50 in test [13], in test [14], in [16] and in [17] was > 100 µM (inactive) throughout.

As for `CCCCc1ccc(NC(=N)N)cc1`, the GI50 in [1] was 33 µM; in [18] it was 40.1 µM (inactive); in test [3] it was 23.7 µM (inactive); in [4], 40 µM (inactive); in test [5], 40.6 µM (inactive); in test [6], 20.2 µM (inactive). Also, the GI50 in test [7] is 30 µM (inactive); in test [19] it was 41.4 µM (inactive); in test [8], 37.3 µM (inactive); in [9] it was 58.2 µM (inactive); in test [10] it was 40.2 µM (inactive); in test [11], > 10 µM (inactive). For the same compound, the GI50 in test [13] was 38.4 µM (inactive); in test [14] it was 28.4 µM (inactive); in test [16], 41.5 µM (inactive); in test [17], 44.5 µM (inactive).

As for `O=C(O)C(Cc1ccccc1)N1C(=O)c2ccccc2C1=O` (stereo not given), the GI50 in test [1] was more than 100 µM; in [18], > 100 µM (inactive); in test [3] it was > 100 µM (inactive); in test [4], > 100 µM (inactive); in test [5], > 100 µM (inactive); in test [6] it was > 100 µM (inactive). Also, the GI50 in test [7] is 93.1 µM (inactive); in test [19], > 100 µM (inactive); in test [8], > 100 µM (inactive); in [9] it was 14.4 µM (inactive); in test [10], > 100 µM (inactive); in test [11] it was > 100 µM (inactive). The GI50 was > 100 µM (inactive) in test [12]; > 100 µM (inactive) in test [13]; > 100 µM (inactive) in [14]; > 100 µM (inactive) in test [16]; 18.7 µM (inactive) in test [17].

Regarding `CC1CC(=O)Nc2ccc(/N=N/N(C)C)cc2N1C=O` (stereo not given), the GI50 in test [1] was more than 100 µM; in test [18], > 100 µM (inactive); in test [2] it was > 100 µM (inactive); in [3] it was > 100 µM (inactive); in [4], > 100 µM (inactive); in test [5], > 100 µM (inactive). Further, the GI50 in test [6], in test [7], in test [19], in test [8], in [9] and in [10] was > 100 µM (inactive) in each case. Besides, the GI50 in test [12], in [13], in test [14], in test [16] and in [17] was > 100 µM (inactive) throughout.
